# Source: PubChem BioAssay AID1996
# Details: buffer; pH 7.4; 200.0 µM
row,Compound,solubility kinetic
1,COc1ccc(-n2c(-c3ccc(C)cc3)nc3ccccc3c2=O)cc1,< 0.4 µg/mL
2,O=C(NC(=O)c1ccccc1)OCCN1C(=O)c2ccccc2C1=O,> 50.7 µg/mL
3,O=C(CCc1ccccc1)Nc1ccc2c(c1)OCO2,26.6 µg/mL
4,c1ccc(CNc2nc(-c3ccccn3)nc3ccccc23)cc1,29.1 µg/mL
5,Cc1ccccc1C(=O)NC1CCN(C(=O)NC2CCCCC2)CC1,6.5 µg/mL
6,O=C(O)C1CCC(CNS(=O)(=O)c2ccc(Cl)cc2)CC1 (configuration not stated),43 µg/mL
7,COc1ccc(C(=O)N[C@H](C(=O)Nc2sccc2C(N)=O)C(C)C)cc1,> 56.3 µg/mL
8,Cc1ccc(OCC(=O)NC(=S)Nc2ccc(Br)cn2)cc1,0.5 µg/mL
9,O=C(COC(=O)c1cccc([N+](=O)[O-])c1)Nc1ncc(Br)s1,3.5 µg/mL
10,C=CCNC(=O)c1c(O)c2cccc3c2n(c1=O)CCC3,< 0.3 µg/mL
11,COc1ccc(NC(=O)c2ccc3nc[nH]c3c2)cc1,> 40.1 µg/mL
12,CCCCc1nc2cc(C(=O)N(C)C3CCOCC3)ccc2o1,> 47.5 µg/mL
13,O=C(Cc1ccccc1[N+](=O)[O-])OCC(=O)c1ccccc1Br,39.1 µg/mL
14,O=C(Cc1ccccc1[N+](=O)[O-])NCCc1ccc(F)cc1,44.6 µg/mL
15,O=C(NCC(c1ccco1)N1CCCCC1)c1ccc([N+](=O)[O-])s1 (configuration not stated),> 52.4 µg/mL
16,Cc1ccc(NC(=O)NCCCN2CCCC2=O)cc1C,> 43.4 µg/mL
17,O=C(CCC(=O)N1CCCC1)Nc1ccc([N+](=O)[O-])cc1,41.3 µg/mL
18,COCCCNC(=S)NCCc1ccc(F)cc1,> 40.6 µg/mL
19,CC(=O)c1ccccc1OC(=O)c1ccc([N+](=O)[O-])o1,> 41.3 µg/mL
20,NC1=NC(=O)/C(=C/c2ccsc2)S1,19.5 µg/mL
21,CC(C)(C)SCCNC(=O)/C=C/c1ccccc1,33.9 µg/mL
22,O=c1[nH]c2ccc(Cl)cc2c(-c2ccccc2)c1[N+](=O)[O-],< 0.3 µg/mL

row,Compound,solubility kinetic
1,CCN(C(=O)C(C)Sc1nnc(-c2ccncc2)n1C)C1CCCCC1 (configuration not stated),> 56 µg/mL
2,O=C(/N=C1\NC(=O)C(F)(C(F)(F)F)S1)NC1CCCCC1 (configuration not stated),> 49.1 µg/mL
3,COc1ccccc1NC1=C(Cl)C(=O)OC1OC(=O)c1ccco1 (configuration not stated),47.3 µg/mL
4,O=C(CSc1nncs1)Nc1ccc2c(c1)OCO2,> 44.3 µg/mL
5,CCCCCC1=NN2C(=O)CC(=O)N=C2S1,> 35.9 µg/mL
6,O=C(CNC(=O)c1ccco1)Nc1ccc2c(c1)OCCO2,> 45.3 µg/mL
7,COc1cc(/C=C(\C#N)C(=O)N2CCCCC2)ccc1O,> 42.9 µg/mL
8,Cc1cccc(C(=O)Nc2ccc3c(c2)C(=O)N(CC(C)C)C3=O)c1,< 0.4 µg/mL
9,Cn1c(SCC(=O)NC2CCCC2)nc2c(c1=O)SCC2,> 48.8 µg/mL
10,COc1ccccc1-n1cnc2cc(NCc3ccccc3O)ccc21,12.6 µg/mL
11,CC1(C)C(c2cccs2)=[N+]([O-])C2(CCCCC2=O)N1O (configuration not stated),41.4 µg/mL
12,CN(CC(O)Cn1c2ccccc2c2ccccc21)S(C)(=O)=O (configuration not stated),> 49.9 µg/mL
13,COc1ccc(C(=O)NCCN2CCCC2)cc1.Cl,> 42.7 µg/mL
14,Fc1ccc(NC(=S)Nc2nccs2)cc1,14.9 µg/mL
15,COc1ccc(CCNC(=O)c2noc(C(C)C)c2[N+](=O)[O-])cc1OC,> 54.5 µg/mL
16,CN(CC(=O)Nc1ccc(Cl)cc1)C1CCCCC1,36 µg/mL
17,Clc1ccc(COn2ccnc2)cc1Cl,> 36.5 µg/mL
18,O=C(COc1ccc([N+](=O)[O-])cc1Cl)Nc1ccc2[nH]c(=O)[nH]c2c1,7.5 µg/mL
19,COc1ccc(NC(=S)Nc2ccccc2)cc1,> 38.8 µg/mL
20,O=Cc1c[nH]c2cccc(OCc3ccccc3)c12,4.6 µg/mL
21,CN(C)C(=O)NC1c2ccccc2-c2ccccc21,> 37.8 µg/mL
22,NS(=O)(=O)c1cccc(NC(=O)COC(=O)CCC2CCCC2)c1,> 53.2 µg/mL

row,Compound,solubility kinetic
1,COC(=O)C1=C(C)N(c2ccccc2)/C(=C/c2ccco2)C1=O,3.3 µg/mL
2,Cc1ccc(SCC(=O)NCc2ccccc2C)cc1,35.7 µg/mL
3,Cc1ccc2c(c1)N(Cc1cccc(F)c1)C(=O)C(C)O2 (configuration not stated),12.7 µg/mL
4,Cc1cc(Cl)ccc1NC(=S)NCc1ccc(F)cc1,2.8 µg/mL
5,COC(=O)c1sc(C(C)(C)C)cc1CS(=O)(=O)c1ccccn1,45.2 µg/mL
6,Cc1nc2cc(NC(=O)c3ccco3)ccc2n1C,38.2 µg/mL
7,OCCC1CN(CCCc2ccccc2)CCN1Cc1ccccc1 (configuration not stated),> 50.8 µg/mL
8,CSc1nc(NS(=O)(=O)c2ccc(F)cc2F)nn1C,> 48 µg/mL
9,CCC(=O)Nc1ccc(C2C(=O)c3ccccc3C2=O)cc1,> 44 µg/mL
10,CN(C(=O)c1cccs1)C1(C)CCS(=O)(=O)C1 (configuration not stated),> 41 µg/mL
11,CC(=O)c1sc(NC(=O)Cc2c(F)cccc2Cl)nc1C,8.2 µg/mL
12,COc1cc(C(=O)NCCSc2ccccc2)cc(OC)c1OC,49.9 µg/mL
13,CCC(C)c1ccccc1NC(=O)COC(=O)C1=NN(c2ccccc2)C(=O)CC1 (configuration not stated),> 61.1 µg/mL
14,CN=C1C([N+](=O)[O-])=CC=C2C1=NC1(CCCCC1)N2O,10.8 µg/mL
15,O=C(Nc1ccc(OC(F)F)cc1)c1ccccn1,31.5 µg/mL
16,CNC(=S)N1CCn2cccc2C1c1cc(OC)c(OC)c(OC)c1 (configuration not stated),> 54.2 µg/mL
17,CC(C)(C)NC(=O)CCCCCCCC(=O)NC(C)(C)C,> 44.8 µg/mL
18,Cc1csc(NC(=O)CCCC(=O)O)c1-c1nc2ccccc2s1,> 54.1 µg/mL
19,CCCCNC(=O)C1(NC(=O)Nc2ccccc2)CCCCC1,5.5 µg/mL
20,COc1cc(NC(=O)c2ccc(Cl)cc2)c2ncccc2c1,< 0.3 µg/mL
21,COc1cc(CNCc2cccc3ccccc23)cc(OC)c1,34.1 µg/mL
22,N#CCc1c(C#N)c(N)nc(N2CCN(C=O)CC2)c1C#N,> 44.3 µg/mL

row,Compound,solubility kinetic
1,CCOc1ncccc1C(=O)N1CCN(C(=O)c2ccccc2)CC1,> 50.9 µg/mL
2,Cc1[nH]c2ccccc2c1-c1nc2ccccc2[nH]c1=O,1.3 µg/mL
3,Oc1ccc2c(c1)c1c3n2CCNC3CCC1 (configuration not stated),31.3 µg/mL
4,NC(=O)c1cc(S(=O)(=O)N2CCCCC2)cs1,> 41.2 µg/mL
5,CCN(Cc1ccc(Cl)s1)C(=O)c1cccc(OCc2c(C)noc2C)c1,16.4 µg/mL
6,Cc1ccc(CC(CC(=O)O)C(=O)Nc2ccc(Cl)cc2)cc1 (configuration not stated),48.6 µg/mL
7,O=C1CC(N2CCN(c3ccc(F)cc3)CC2)C(=O)N1c1ccccc1 (configuration not stated),49.4 µg/mL
8,CN1C(=O)C(=Cc2cccnc2)C(=O)N(C)C1=O,32.3 µg/mL
9,Cc1csc(NC(=O)CSc2nncc(=O)n2N)n1,> 44.8 µg/mL
10,N#Cc1c(N2CCNCC2)nc(-c2ccco2)c2c1CCCC2,> 46.3 µg/mL
11,CCN(C(=O)C(C)Cl)c1ccccc1 (configuration not stated),20.6 µg/mL
12,O=C1Nc2ccccc2C1=Nc1cccc(Cl)c1,28.2 µg/mL
13,CC(CN1CCCCC1)OC(=O)c1ccc2c(c1)OCCO2.Cl (configuration not stated),> 51.3 µg/mL
14,N#CCOc1coc(CN2CCN(c3ccccc3)CC2)cc1=O,> 48.8 µg/mL
15,Nc1ncnc(Oc2cccc(C(F)(F)F)c2)c1[N+](=O)[O-],7.6 µg/mL
16,COc1cc(OC)cc(C(=O)Nc2cccc3c2CCCC3)c1,< 0.7 µg/mL
17,Cl.O=C(O)CC1NCCc2ccccc21 (configuration not stated),> 34.2 µg/mL
18,COc1ccc(C(=O)NCc2cc3ccccc3n2C)cc1,3.7 µg/mL
19,COc1ccc(C(=O)Nc2cc(S(=O)(=O)N3CCCC3)ccc2Cl)cc1,9.2 µg/mL
20,Cc1c(C)c(C)c(CN2CCCC2)c(C)c1C,29.4 µg/mL
21,CC(Oc1ccccc1)C(=O)NC1CCSc2ccccc21 (configuration not stated),25.9 µg/mL
